Target: T1, KRas G12C (Homo sapiens, UniProt P01116, G12C)
T1 construct: NCI-H358 cells (ATCC CRL-5807) express KRas G12C
Assay: Inhibition of KRas G12C-dependent cell growth: Phospho-ERK in NCI-H358 cells
Format: cell-based
Settings: NCI-H358 cells expressing KRas G12C; Phospho-ERK (Thr202/Tyr204) normalized to GAPDH; 3 hours compound; 4 parameter fit
Method in brief: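 NCI-H358 cells (KRas G12C) exposed to compounds for 3 h, 0.5% DMSO final. Fixed cells immunostained for pERK(Thr202/Tyr204) and GAPDH with infrared secondary antibodies. pERK normalized to GAPDH, expressed as percent of DMSO control; IC50 from 4-parameter dose-response fit.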

T1 sequence (P01116 1-188 isoform P01116-2 G12C): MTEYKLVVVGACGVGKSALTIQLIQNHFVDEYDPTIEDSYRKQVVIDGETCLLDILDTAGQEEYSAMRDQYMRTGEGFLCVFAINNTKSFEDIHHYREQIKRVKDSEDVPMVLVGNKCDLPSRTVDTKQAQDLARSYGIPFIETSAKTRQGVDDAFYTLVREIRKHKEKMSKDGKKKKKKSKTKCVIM

SMILES | IC50
C=C(F)C(=O)N1CCN(c2nc(N3CC(N(C)C)C3)nc3c(F)c(-c4cccc5ccc(F)c(Cl)c45)ncc23)C[C@@H]1CC#N [Example 170] | 19 nM
C=CC(=O)N1CCN(c2nc(OC[C@@H]3CCCN3C)nc3c(F)c(-c4cccc5ccc(F)c(Cl)c45)ncc23)CC1 [Example 171] | 22 nM
C=C(F)C(=O)N1CCN(c2nc(OC[C@H]3CCN3CC)nc3c(F)c(-c4cccc5ccc(F)c(Cl)c45)ncc23)C[C@@H]1CC#N [Example 172] | 18 nM
C=C(F)C(=O)N1CCN(c2nc(OC[C@@H]3CCN3CC)nc3c(F)c(-c4cccc5ccc(F)c(Cl)c45)ncc23)C[C@@H]1CC#N [Example 173] | 31 nM
C=C(F)C(=O)N1CCN(c2nc(OCC3CCC4CCCN43)nc3c(F)c(-c4cccc5ccc(F)c(Cl)c45)ncc23)C[C@@H]1CC#N (stereo partly shown) [Example 174] | 20 nM
C=CC(=O)N1CC[C@@H]2[C@H]1CN2c1ncnc2c(F)c(-c3cccc4ccc(F)c(Cl)c34)ncc12 [Example 175] | 134 nM
C=C(F)C(=O)N1CCN(c2nc(OC[C@@H]3[C@@H](F)CCN3C)nc3c(F)c(-c4cccc5ccc(F)c(Cl)c45)ncc23)C[C@@H]1CC#N [Example 176] | 30 nM
C=C(F)C(=O)N1CCN(c2nc(OC[C@H]3[C@@H](F)CCN3C)nc3c(F)c(-c4cccc5ccc(F)c(Cl)c45)ncc23)C[C@@H]1CC#N [Example 177] | 51 nM
C=CC(=O)N1CCN(c2ncnc3c(F)c(-c4cc(O)cc5cccc(Cl)c45)ncc23)CC1 [Example 178] | 63 nM
C=C(F)C(=O)N1CCN(c2nc(OCC34CCCN3C[C@H](F)C4)nc3c(F)c(-c4cccc5ccc(F)c(Cl)c45)ncc23)C[C@@H]1CC#N (stereo partly shown) [Example 181] | 4 nM
C=C(F)C(=O)N1CCN(c2nc(OC[C@@H]3CCCN3CCF)nc3c(F)c(-c4cccc5ccc(F)c(Cl)c45)ncc23)C[C@@H]1CC#N [Example 182] | 27 nM
C=CC(=O)N1CCN(c2ncnc3c(F)c(-c4cccc5ccc(F)c(Cl)c45)ncc23)C[C@@H]1CC(F)F [Example 183] | 10000 nM
C=CC(=O)N1CCN(c2nc(OC[C@@H]3CCCN3C)nc3c(F)c(-c4ccccc4F)ncc23)CC1 [Example 184] | 10000 nM
C=C(F)C(=O)N1CCN(c2nc(OC[C@@H]3CCCN3CC(F)F)nc3c(F)c(-c4cccc5ccc(F)c(Cl)c45)ncc23)C[C@@H]1CC#N [Example 185] | 145 nM
C=CC(=O)N1CCN(c2ncnc3c(F)c(-c4ccccc4F)ncc23)[C@@H](C)C1 [Example 186] | 10000 nM
C=CC(=O)N1CCN(c2nc(N3CCC3)nc3c(F)c(-c4cccc5ccc(F)c(Cl)c45)ncc23)C[C@@H]1CC#N [Example 187] | 74 nM
C=C(F)C(=O)N1CCN(c2nc(OCC34CCCN3C(CF)CC4)nc3c(F)c(-c4cccc5ccc(F)c(Cl)c45)ncc23)C[C@@H]1CC#N (stereo partly shown) [Example 188] | 29 nM
C=CC(=O)N1C[C@@H]2[C@H]1CCN2c1ncnc2c(F)c(-c3cccc4ccc(F)c(Cl)c34)ncc12 [Example 190] | 10000 nM
C=C(F)C(=O)N1CCN(c2nc(OC[C@@H]3[C@H]4C[C@H]4CN3C)nc3c(F)c(-c4cccc5ccc(F)c(Cl)c45)ncc23)C[C@@H]1CC#N [Example 191] | 15 nM
C=C(F)C(=O)N1CCN(c2nc(OC[C@@H]3[C@@H]4C[C@@H]4CN3C)nc3c(F)c(-c4cccc5ccc(F)c(Cl)c45)ncc23)C[C@@H]1CC#N [Example 192] | 38 nM
C=C(F)C(=O)N1CCN(c2nc(OC[C@H]3CN(C)C[C@H]3F)nc3c(F)c(-c4cccc5ccc(F)c(Cl)c45)ncc23)C[C@@H]1CC#N [Example 193] | 67 nM
C=C(F)C(=O)N1CCN(c2nc(OC[C@@H]3CN(C)C[C@@H]3F)nc3c(F)c(-c4cccc5ccc(F)c(Cl)c45)ncc23)C[C@@H]1CC#N [Example 194] | 64 nM
C=C(F)C(=O)N1CCN(c2nc(OC[C@H]3[C@@H]4CC[C@@H](C4)N3CCF)nc3c(F)c(-c4cccc5ccc(F)c(Cl)c45)ncc23)C[C@@H]1CC#N [Example 195] | 31 nM

SMILES | IC50
C=C(F)C(=O)N1CCN(c2nc(OC[C@H]3[C@@H]4CC[C@@H](C4)N3CC(F)F)nc3c(F)c(-c4cccc5ccc(F)c(Cl)c45)ncc23)C[C@@H]1CC#N [Example 196] | 1730 nM
C=CC(=O)N1CCN(c2ncnc3c(F)c(-c4cccc5ccc(F)cc45)ncc23)C[C@@H]1CC#N [Example 197] | 165 nM
C=CC(=O)N1CCN(c2ncnc3c(F)c(-c4c(C)c(C)cc5[nH]ncc45)ncc23)CC1 [Example 198] | 8000 nM
C=CC(=O)N1CCN(c2nc(C(F)(F)F)nc3c(F)c(-c4cccc5ccc(F)c(Cl)c45)ncc23)C[C@@H]1CC#N [Example 199] | 3400 nM
CN(C)CC#CC(=O)N1CCN(c2ncnc3c(F)c(-c4cccc5ccc(F)c(Cl)c45)ncc23)CC1 [Example 200] | 410 nM
CC#CC(=O)N1CCN(c2ncnc3c(F)c(-c4cccc5ccc(F)c(Cl)c45)ncc23)CC1 [Example 201] | 10000 nM
C=CS(=O)(=O)N1CCN(c2ncnc3c(F)c(-c4cccc5ccc(F)c(Cl)c45)ncc23)CC1 [Example 205] | 10000 nM
C=CC(=O)N1CCN(c2nc(C)nc3c(F)c(-c4cc(O)cc5ccccc45)ncc23)CC1 [Example 206] | 1680 nM
C=C(F)C(=O)N1CCN(c2nc(Oc3cccc4c3CCN(C)C4)nc3c(F)c(-c4cccc5ccc(F)c(Cl)c45)ncc23)C[C@@H]1CC#N [Example 207] | 6850 nM
C=C(F)C(=O)N1CCN(c2nc(OCC3(C)C(OC)CN3C)nc3c(F)c(-c4cccc5ccc(F)c(Cl)c45)ncc23)C[C@@H]1CC#N (stereo partly shown) [Example 208] | 4 nM
C=C(F)C(=O)N1CCN(c2nc(OC[C@@H]3CCCN3C3CC3)nc3c(F)c(-c4cccc5ccc(F)c(Cl)c45)ncc23)C[C@@H]1CC#N [Example 209] | 46 nM
C=C(F)C(=O)N1CCN(c2nc(OC[C@@H]3CC(F)(F)CN3C)nc3c(F)c(-c4cccc5ccc(F)c(Cl)c45)ncc23)C[C@@H]1CC#N [Example 210] | 49 nM
C=C(F)C(=O)N1CCN(c2nc(OC[C@@H]3CCCN3C)nc3c(O)c(-c4cccc5cccc(C)c45)ncc23)C[C@@H]1CC#N [Example 211, 2-((S)-1-(2-fluoroacryloyl)-4-(8-hydroxy-7-(8-methylnaphthalen-1-yl)-2-(((S)-1-methylpyrrolidin-2-yl)methoxy)pyrido[4,3-d]pyrimidin-4-yl)piperazin-2-yl)acetonitrile] | 2 nM
C#Cc1cccc2cccc(-c3ncc4c(N5CCN(C(=O)C(=C)F)[C@@H](CC#N)C5)nc(OC[C@@H]5CCCN5C)nc4c3F)c12 [Example 212, 2-((S)-4-(7-(8-ethynylnaphthalen-1-yl)-8-fluoro-2-(((S)-1-methylpyrrolidin-2-yl)methoxy)pyrido[4,3-d]pyrimidin-4-yl)-1-(2-fluoroacryloyl)piperazin-2-yl)acetonitrile] | 7 nM
C#Cc1cccc2cccc(-c3ncc4c(N5CCN(C(=O)C=C)CC5)nc(OC[C@@H]5CCCN5C)nc4c3F)c12 [Example 213, (S)-1-(4-(7-(8-ethynylnaphthalen-1-yl)-8-fluoro-2-((1-methylpyrrolidin-2-yl)methoxy)pyrido[4,3-d]pyrimidin-4-yl)piperazin-1-yl)prop-2-en-1-one] | 62 nM
C#Cc1cccc2cccc(-c3ncc4c(N5CCN(C(=O)C=C)CC5)ncnc4c3F)c12 [Example 214, 1-(4-(7-(8-ethynylnaphthalen-1-yl)-8-fluoropyrido[4,3-d]pyrimidin-4-yl)piperazin-1-yl)prop-2-en-1-one] | 2110 nM
C#Cc1cccc2cc(O)cc(-c3ncc4c(N5CCN(C(=O)C=C)CC5)ncnc4c3F)c12 [Example 215, 1-(4-(7-(8-ethynyl-3-hydroxynaphthalen-1-yl)-8-fluoropyrido[4,3-d]pyrimidin-4-yl)piperazin-1-yl)prop-2-en-1-one] | 31 nM
C=C(F)C(=O)N1CCN(c2nc(OCC34CCCN3C(CO)CC4)nc3c(F)c(-c4cccc5ccc(F)c(Cl)c45)ncc23)C[C@@H]1CC#N (stereo partly shown) [Example 216, 2-((2 S)-4-(7-(8-chloro-7-fluoronaphthalen-1-yl)-8-fluoro-2-((3-(hydroxymethyl)tetrahydro-1H-pyrrolizin-7a(5H)-yl)methoxy)pyrido[4,3-d]pyrimidin-4-yl)-1-(2-fluoroacryloyl)piperazin-2-yl)acetonitrile] | 121 nM
C=C(F)C(=O)N1CCN(c2nc(OCC3CCC4(CO)CCCN34)nc3c(F)c(-c4cccc5ccc(F)c(Cl)c45)ncc23)C[C@@H]1CC#N (stereo partly drawn) [Example 217, 2-((2S)-4-(7-(8-chloro-7-fluoronaphthalen-1-yl)-8-fluoro-2-((7a-(hydroxymethyl)hexahydro-1H-pyrrolizin-3-yl)methoxy)pyrido[4,3-d]pyrimidin-4-yl)-1-(2-fluoroacryloyl)piperazin-2-yl)acetonitrile] | 11 nM
C=CC(=O)N1CCN(c2ncnc3c(F)c(-c4cc(O)cc5ccccc45)ncc23)CC1 [Example 218, 1-(4-(8-fluoro-7-(3-hydroxynaphthalen-1-yl)pyrido[4,3-d]pyrimidin-4-yl)piperazin-1-yl)prop-2-en-1-one] | 711 nM
C=CC(=O)N1CCN(c2nc(C3CC3)nc3c(F)c(-c4cccc5ccc(F)c(Cl)c45)ncc23)C[C@@H]1CC#N [Example 219, (S)-2-(1-acryloyl-4-(7-(8-chloro-7-fluoronaphthalen-1-yl)-2-cyclopropyl-8-fluoropyrido[4,3-d]pyrimidin-4-yl)piperazin-2-yl)acetonitrile] | 538 nM
C=CC(=O)N1CCN(c2ncnc3c(F)c(-c4cc(O)cc5ccccc45)ncc23)C[C@@H]1CC#N [Example 220, (S)-2-(1-acryloyl-4-(8-fluoro-7-(3-hydroxynaphthalen-1-yl)pyrido[4,3-d]pyrimidin-4-yl)piperazin-2-yl)acetonitrile] | 22 nM
O=C(/C=C/CF)N1CC[C@@H]2[C@H]1CN2c1ncnc2c(F)c(-c3cccc4ccc(F)c(Cl)c34)ncc12 [Example 221] | 1930 nM

From patent publication US11548888B2, “KRas G12C inhibitors” (Mirati Therapeutics, Inc., priority 2019, dated 2023)
